# Reference: PMC7226045, “Ensartinib (X-396) Effectively Modulates Pharmacokinetic Resistance Mediated by ABCB1 and ABCG2 Drug Efflux Transporters and CYP3A4 Biotransformation Enzyme” (Cancers, 2020)
# Experiments:
# [1] = test system: HL60-parent cells; assay: XTT proliferation / drug combination assay, HL60-parent; assay type: cell-based, human
# Experimental: Briefly, HL60-par, HL60-ABCB1, HL60-ABCG2, and HL60-ABCC1 cells were seeded at 2 × 10^4 cells/well in 96-well culture plates. Immediately after seeding, dilutions of the tested drugs or drug combinations were added to the cells. The plates were then incubated under standard conditions (37 °C, 5% CO2) for 48 h, after which XTT solution in PBS (1 mg/mL) and phenazine methosulfate (7.50 µg/mL) were added to the cells and the plates were incubated for another 5 h. Finally, the cells’ absorbance was measured at 450 nm using a microplate reader (Infinite M200, Tecan, Salzburg, Austria). This method was used to assess the effect of ABC transporters on sensitivity to ensartinib and in drug combination assays.
# The parent MDCKII and HL60 cells and their ABCB1-, ABCG2-, and ABCC1-overexpressing counterparts were seeded at the densities specified above onto 96-well culture plates and cultured for 24 h. The medium was subsequently replaced with serial dilutions of ensartinib alone or with various concentrations of a model MDR-susceptible cytostatic agent (daunorubicin or mitoxantrone) with or without 10 µM ensartinib. After 48 h incubation, the cells’ viability was determined as described above. In addition to performing IC50-shift analyses, the viability measurements were converted to FA (fraction of cells affected) values and the effects of drug combinations were quantified using the Chou-Talalay combination index (CI) method as implemented in CompuSyn 3.0.1 (ComboSyn Inc., Paramus, NJ, USA). The effects of concomitantly administered drugs were classified as synergistic (CI < 0.9), additive (0.9 < CI < 1.1), or antagonistic (CI > 1.1) based on the computed CI values [57].
# [2] = MTT proliferation assay, A431-ABCG2; assay type: cell-based; settings: human, A431-ABCG2 cells, read-out: IC50, sensitivity to ensartinib
# Experimental: (§1) MTT proliferation assay was performed as described previously.
# [3] = test system: A431-ABCC1 cells; assay: MTT proliferation assay, A431-ABCC1; assay type: cell-based; settings: Homo sapiens, 48 h, read-out: IC50, sensitivity to ensartinib
# Experimental: as §1
# [4] = target: T1, ABCG2 (Homo sapiens, UniProt Q9UNQ0); assay: hoechst 33342 accumulation assay in MDCKII-ABCG2 cells; assay type: cell-based; settings: read-out: IC50, inhibition of ABCG2 (hoechst 33342 accumulation)
# T1 construct: expressed in transfected cells; host or cells: MDCKII-ABCG2 (from Dr. Alfred Schinkel, The Netherlands Cancer Institute)
# T1 sequence (Q9UNQ0 1-655): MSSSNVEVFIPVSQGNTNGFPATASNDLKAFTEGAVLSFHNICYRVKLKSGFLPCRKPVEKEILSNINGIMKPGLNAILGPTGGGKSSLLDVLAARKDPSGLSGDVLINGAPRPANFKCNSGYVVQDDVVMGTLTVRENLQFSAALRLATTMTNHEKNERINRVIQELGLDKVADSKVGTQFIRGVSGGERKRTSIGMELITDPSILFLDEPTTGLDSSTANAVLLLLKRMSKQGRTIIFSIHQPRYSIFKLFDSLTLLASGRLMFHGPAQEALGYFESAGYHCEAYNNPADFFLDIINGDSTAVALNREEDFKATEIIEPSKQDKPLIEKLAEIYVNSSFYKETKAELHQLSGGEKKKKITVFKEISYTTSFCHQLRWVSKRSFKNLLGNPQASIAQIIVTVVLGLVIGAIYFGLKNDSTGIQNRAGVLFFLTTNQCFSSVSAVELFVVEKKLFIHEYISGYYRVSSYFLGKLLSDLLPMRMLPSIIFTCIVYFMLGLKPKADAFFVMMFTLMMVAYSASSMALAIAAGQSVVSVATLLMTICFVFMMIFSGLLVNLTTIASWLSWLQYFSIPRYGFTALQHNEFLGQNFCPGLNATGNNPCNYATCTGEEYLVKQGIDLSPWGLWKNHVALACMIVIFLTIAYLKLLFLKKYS
# Experimental: Cellular accumulation assay with hoechst 33342 and calcein AM was performed as described previously. Briefly, MDCKII-par, MDCKII-ABCB1, MDCKII-ABCG2, and MDCKII-ABCC1 cells were seeded at densities of 5.0 × 10^4, 5.0 × 10^4, 5.5 × 10^4, and 6.0 × 10^4 cells/well, respectively, on a transparent 96-well plate and grown to full confluence for 24 h under standard conditions. The cells were then washed twice with 1 × PBS, after which was added either a dilution of ensartinib in Opti-MEM (1, 5, 10, 25, or 50 µM) or a specific inhibitor to act as a positive control (1 µM LY335979, 1 µM Ko143, or 25 µM MK-571 for ABCB1, ABCG2, or ABCC1, respectively). Cells were pre-incubated for 10 min, then 8 µM hoechst 33342 (a model substrate for ABCB1 and ABCG2) or 2 µM calcein AM (ABCC1 substrate) diluted in Opti-MEM was quickly added to all wells other than those containing blank samples. The intracellular levels of the substrates were then determined at 1 min intervals for 30 min using a microplate reader (Infinite M200 Pro, Tecan, Männedorf, Switzerland). Fluorescence was monitored in bottom mode using excitation/emission wavelengths of 350/465 and 485/535 nm for hoechst 33342 and calcein AM, respectively.
# [5] = test system: MDCKII-parent cells; assay: MTT proliferation / drug combination assay, MDCKII-parent; assay type: cell-based, canine
# Experimental: as §1
# [6] = target: T2, ABCB1 (Homo sapiens, UniProt P08183); assay: daunorubicin accumulation assay (flow cytometry) in MDCKII-ABCB1 cells; assay type: cell-based; settings: 2 µM daunorubicin, 1 h, read-out: IC50, inhibition of ABCB1 (daunorubicin accumulation)
# T2 construct: expressed in transfected cells; host or cells: MDCKII-ABCB1 (from Dr. Alfred Schinkel, The Netherlands Cancer Institute)
# T2 sequence (P08183 whole entry): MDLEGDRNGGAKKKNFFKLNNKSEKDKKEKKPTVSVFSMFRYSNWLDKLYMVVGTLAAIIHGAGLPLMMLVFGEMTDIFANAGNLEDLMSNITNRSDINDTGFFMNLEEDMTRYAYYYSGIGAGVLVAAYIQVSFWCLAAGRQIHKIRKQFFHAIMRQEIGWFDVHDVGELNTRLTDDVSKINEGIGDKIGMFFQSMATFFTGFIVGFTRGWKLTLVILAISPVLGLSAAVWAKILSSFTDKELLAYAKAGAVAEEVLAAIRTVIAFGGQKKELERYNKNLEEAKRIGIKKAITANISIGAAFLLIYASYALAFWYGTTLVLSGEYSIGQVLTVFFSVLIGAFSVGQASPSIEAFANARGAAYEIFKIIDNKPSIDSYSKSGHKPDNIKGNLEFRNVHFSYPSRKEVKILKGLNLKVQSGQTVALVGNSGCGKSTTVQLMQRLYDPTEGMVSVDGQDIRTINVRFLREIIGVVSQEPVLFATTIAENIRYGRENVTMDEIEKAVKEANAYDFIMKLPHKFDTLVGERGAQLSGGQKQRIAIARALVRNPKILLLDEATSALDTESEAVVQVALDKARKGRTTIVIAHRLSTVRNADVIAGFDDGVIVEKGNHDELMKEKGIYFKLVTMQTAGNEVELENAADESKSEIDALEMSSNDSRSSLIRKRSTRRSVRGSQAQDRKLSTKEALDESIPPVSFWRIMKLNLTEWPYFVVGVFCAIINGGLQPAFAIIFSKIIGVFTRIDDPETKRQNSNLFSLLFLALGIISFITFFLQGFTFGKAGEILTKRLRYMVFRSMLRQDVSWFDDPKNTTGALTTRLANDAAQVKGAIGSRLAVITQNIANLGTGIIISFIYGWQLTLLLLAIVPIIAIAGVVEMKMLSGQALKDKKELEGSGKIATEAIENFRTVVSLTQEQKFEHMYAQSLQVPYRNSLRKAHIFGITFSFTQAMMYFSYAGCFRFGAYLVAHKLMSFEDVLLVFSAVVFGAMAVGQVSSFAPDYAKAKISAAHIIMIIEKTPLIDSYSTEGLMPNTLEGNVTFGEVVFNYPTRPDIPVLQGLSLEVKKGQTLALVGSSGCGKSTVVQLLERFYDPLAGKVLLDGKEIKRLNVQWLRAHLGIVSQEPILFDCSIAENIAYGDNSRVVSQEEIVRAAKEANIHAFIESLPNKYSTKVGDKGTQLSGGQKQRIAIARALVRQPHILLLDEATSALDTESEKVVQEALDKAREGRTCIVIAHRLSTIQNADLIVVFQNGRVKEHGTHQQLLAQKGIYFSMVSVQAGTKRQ
# Experimental: The flow-cytometric inhibitory assay with daunorubicin and mitoxantrone was performed with minor modifications as described previously. MDCKII-par, MDCKII-ABCB1, MDCKII-ABCG2, and MDCKII-ABCC1 cell lines were seeded at densities of 22.0 × 10^4, 15.0 × 10^4, 25.0 × 10^4, and 22.0 × 10^4 cells/well, respectively, on a 12-well plate and then incubated for 24 h to reach approximately 70–80% confluence. Further steps including cell washing, the preparation of drug/model inhibitor dilutions, and their addition to cells were performed as described above. After the 10 min pre-incubation period, 2 µM daunorubicin (a substrate of ABCB1/ABCC1) or 1 µM mitoxantrone (ABCG2 substrate) were promptly added to all wells other than those containing background samples, then the plate was incubated for 1 h under standard conditions. The plates were subsequently placed on ice, the cells were washed twice with ice-cold 1× PBS, and 10× trypsin without phenol red was added. After complete trypsinization, the cells were vigorously resuspended in ice-cold 1× PBS containing 2% FBS. Samples were then transferred into test-tubes and kept on ice until their fluorescence could be measured using a flow cytometer (BD FACSCanto II, Allschwil, Switzerland). The excitation/emission wavelengths for daunorubicin and mitoxantrone were 490/565 and 640/670 nm, respectively.
# [7] = MTT proliferation assay, A431-ABCB1; assay type: cell-based; settings: human, A431-ABCB1 cells, read-out: IC50, sensitivity to ensartinib
# Experimental: as §1
smiles,measurement,setting,value
"C[C@@H]1CN(C(=O)c2ccc(NC(=O)c3cc(O[C@H](C)c4c(Cl)ccc(F)c4Cl)c(N)nn3)cc2)C[C@H](C)N1 [ensartinib, Ensartinib]",combination effect (Chou-Talalay combination index),"[1]; HL60 parental, 10 µM ensartinib with daunorubicin or mitoxantrone, whole FA range",antagonistic or additive
same,IC50,"[1]; Homo sapiens, HL60-parent, 48 h, XTT, read-out: IC50, sensitivity to ensartinib",31.9 µM
same,IC50 at 48 h,[2],2.26 µM
same,IC50,[3],1.86 µM
same,IC50,[4],9.13 µM
same,IC50,"[5]; Canis lupus familiaris, MDCKII-parent, 48 h, MTT, read-out: IC50, sensitivity to ensartinib",21.8 µM
same,combination effect (Chou-Talalay combination index),"[5]; MDCKII parental, 10 µM ensartinib with daunorubicin or mitoxantrone, whole FA range",antagonistic or additive
same,IC50,[6],4.75 µM
same,IC50 at 48 h,[7],2.79 µM
